Molecular target: STING (Homo sapiens, UniProt Q86WV6)
Experiment: STING binding assay similar to that described by Li et al

Chain of STING (Q86WV6 whole entry H232R, species assumed): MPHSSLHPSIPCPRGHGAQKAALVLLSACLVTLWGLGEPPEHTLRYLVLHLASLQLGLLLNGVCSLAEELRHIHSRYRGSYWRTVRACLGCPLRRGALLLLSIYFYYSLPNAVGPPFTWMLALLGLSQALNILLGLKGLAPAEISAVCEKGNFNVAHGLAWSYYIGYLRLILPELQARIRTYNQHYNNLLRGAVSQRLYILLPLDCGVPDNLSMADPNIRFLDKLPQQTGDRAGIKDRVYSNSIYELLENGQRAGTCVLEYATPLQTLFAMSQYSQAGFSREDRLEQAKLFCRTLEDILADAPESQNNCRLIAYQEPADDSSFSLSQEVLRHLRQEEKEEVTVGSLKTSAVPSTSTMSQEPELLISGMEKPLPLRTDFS

## Nc1nc2c(ncn2[C@@H]2C[C@@H]3COP(=O)(O)O[C@H]4[C@@H](F)[C@H](n5cnc6c(N)ncnc65)O[C@@H]4COP(=O)(O)O[C@@H]2[C@@H]3O)c(=O)[nH]1 [Example 4, (1S,6R,8R,9R,10R,15R,17R,18R)-17-(2-Amino-6-oxo-6,9-dihydro-1H-purin-9-yl)-8-(6-amino-9H-purin-9-yl)-9-fluoro-3,12,18-trihydroxy-2,4,7,11,13-pentaoxa-3λ^5,12λ^5-diphosphatricyclo[13.2.1.0^6,10]octadecane-3,12-dione]
  IC50: < 100 µM
